Data: PMC1084349 (BMC Neuroscience, 2005)
Where a SMILES comes first, the peptide text is derived from it.

Key:
rTas1r2-rTas1r3 = target: T1, rTas1r2-rTas1r3 (Rattus norvegicus, UniProt Q923K1+Q9Z0R7); experiment: Calcium mobilization (FLIPR) in transfected HEK293T-Gα16gust44 cells, rat sweet receptor; conditions: asp 15 mM; cyc 30 mM; neo 0.1 mM; sac 10 mM; suc 100 mM; stev 1 mM
T1 sequence (Q9Z0R7 20-843): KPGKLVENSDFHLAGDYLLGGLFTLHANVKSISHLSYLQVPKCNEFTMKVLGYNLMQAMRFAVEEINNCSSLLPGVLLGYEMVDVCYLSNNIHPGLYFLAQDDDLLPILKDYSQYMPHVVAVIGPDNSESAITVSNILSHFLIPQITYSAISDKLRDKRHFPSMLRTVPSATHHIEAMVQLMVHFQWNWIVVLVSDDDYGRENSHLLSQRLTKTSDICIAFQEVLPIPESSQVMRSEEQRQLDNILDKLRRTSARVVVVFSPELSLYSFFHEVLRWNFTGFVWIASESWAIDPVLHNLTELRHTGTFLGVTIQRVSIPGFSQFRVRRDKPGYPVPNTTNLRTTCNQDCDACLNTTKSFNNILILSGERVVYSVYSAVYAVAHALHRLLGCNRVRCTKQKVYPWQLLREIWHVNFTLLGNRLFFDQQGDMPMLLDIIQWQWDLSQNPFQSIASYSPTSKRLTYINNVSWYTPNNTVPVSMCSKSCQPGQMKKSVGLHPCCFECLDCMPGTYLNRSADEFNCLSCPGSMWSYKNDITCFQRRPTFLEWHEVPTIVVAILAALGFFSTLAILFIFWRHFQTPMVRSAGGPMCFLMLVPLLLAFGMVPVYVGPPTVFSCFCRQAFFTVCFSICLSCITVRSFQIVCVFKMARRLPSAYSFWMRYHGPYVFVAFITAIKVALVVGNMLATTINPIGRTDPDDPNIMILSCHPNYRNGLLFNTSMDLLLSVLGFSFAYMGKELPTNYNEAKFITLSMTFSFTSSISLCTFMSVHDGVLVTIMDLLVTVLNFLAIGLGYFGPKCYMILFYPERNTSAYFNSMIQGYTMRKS
T1 sequence (Q923K1 21-858): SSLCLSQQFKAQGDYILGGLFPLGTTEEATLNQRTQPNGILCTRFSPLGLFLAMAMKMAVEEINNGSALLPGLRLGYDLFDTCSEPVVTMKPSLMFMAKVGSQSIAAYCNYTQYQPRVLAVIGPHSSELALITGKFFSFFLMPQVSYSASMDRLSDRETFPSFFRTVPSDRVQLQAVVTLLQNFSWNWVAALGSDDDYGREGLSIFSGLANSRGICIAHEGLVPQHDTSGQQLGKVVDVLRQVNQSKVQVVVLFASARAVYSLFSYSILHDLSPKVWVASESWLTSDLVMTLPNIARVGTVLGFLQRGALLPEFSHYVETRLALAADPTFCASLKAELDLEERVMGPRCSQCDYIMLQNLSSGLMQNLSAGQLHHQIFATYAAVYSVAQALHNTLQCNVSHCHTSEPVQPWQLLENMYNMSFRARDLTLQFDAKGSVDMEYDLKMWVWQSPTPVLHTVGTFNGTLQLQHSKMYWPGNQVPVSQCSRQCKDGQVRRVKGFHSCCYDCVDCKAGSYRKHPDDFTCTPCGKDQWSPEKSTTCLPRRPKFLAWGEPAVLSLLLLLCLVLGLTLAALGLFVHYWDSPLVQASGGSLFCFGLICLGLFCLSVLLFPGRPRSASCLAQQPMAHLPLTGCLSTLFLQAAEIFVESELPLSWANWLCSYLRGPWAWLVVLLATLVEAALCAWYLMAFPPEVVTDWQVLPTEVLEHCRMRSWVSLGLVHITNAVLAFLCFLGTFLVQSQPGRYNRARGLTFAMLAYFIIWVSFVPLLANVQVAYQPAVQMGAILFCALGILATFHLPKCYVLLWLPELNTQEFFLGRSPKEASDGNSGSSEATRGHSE

rTas1r2-hTAS1R3 = target: T2, rTas1r2-hTAS1R3 (UniProt Q7RTX0+Q9Z0R7); experiment: Calcium mobilization (FLIPR), interspecies combination; conditions: asp 15 mM; cyc 30 mM; neo 0.1 mM; sac 10 mM; suc 100 mM; stev 1 mM; markedly reduced amplitudes
T2 sequence (Q9Z0R7 20-843): T1 sequence (Q9Z0R7 20-843)
T2 sequence (Q7RTX0 21-852): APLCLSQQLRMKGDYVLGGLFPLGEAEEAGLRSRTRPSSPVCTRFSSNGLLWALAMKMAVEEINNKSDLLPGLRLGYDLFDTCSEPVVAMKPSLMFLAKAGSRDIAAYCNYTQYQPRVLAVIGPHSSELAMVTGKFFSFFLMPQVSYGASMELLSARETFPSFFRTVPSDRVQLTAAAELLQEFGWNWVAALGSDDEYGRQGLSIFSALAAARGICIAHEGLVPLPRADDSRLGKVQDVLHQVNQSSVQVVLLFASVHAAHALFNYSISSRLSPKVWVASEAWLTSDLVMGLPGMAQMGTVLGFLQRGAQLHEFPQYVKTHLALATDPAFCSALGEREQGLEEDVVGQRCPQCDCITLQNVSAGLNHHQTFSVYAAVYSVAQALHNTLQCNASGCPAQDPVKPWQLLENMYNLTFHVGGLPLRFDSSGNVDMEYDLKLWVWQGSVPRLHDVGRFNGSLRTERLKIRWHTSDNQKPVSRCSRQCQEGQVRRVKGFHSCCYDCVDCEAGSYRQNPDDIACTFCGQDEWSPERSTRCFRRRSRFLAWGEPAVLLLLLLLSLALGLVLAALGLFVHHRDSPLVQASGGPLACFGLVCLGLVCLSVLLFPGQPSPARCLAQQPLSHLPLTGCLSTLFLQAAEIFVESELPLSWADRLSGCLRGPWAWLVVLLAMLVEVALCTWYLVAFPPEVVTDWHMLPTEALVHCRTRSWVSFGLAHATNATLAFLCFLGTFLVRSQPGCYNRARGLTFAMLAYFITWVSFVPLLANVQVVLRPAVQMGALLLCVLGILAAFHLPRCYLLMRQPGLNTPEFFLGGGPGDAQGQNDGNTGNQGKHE

COC(=O)[C@H](Cc1ccccc1)NC(=O)[C@@H](N)CC(=O)O [aspartame] (HELM PEPTIDE1{D.F.[CO[*:1]]}$$$$V2.0)
activation of receptor (calcium response) (rTas1r2-rTas1r3): did not activate
activation of receptor (calcium response) (rTas1r2-hTAS1R3): failed to activate

O=S(=O)(O)NC1CCCCC1 [cyclamate]
activation of receptor (calcium response) (rTas1r2-rTas1r3): did not activate
activation of receptor (calcium response) (rTas1r2-hTAS1R3): clearly responded

COc1ccc(CCC(=O)c2c(O)cc(O[C@@H]3O[C@H](CO)[C@@H](O)[C@H](O)[C@H]3O[C@@H]3O[C@@H](C)[C@H](O)[C@@H](O)[C@H]3O)cc2O)cc1O [neohesperidine dihydrochalcone]
activation of receptor (calcium response) (rTas1r2-rTas1r3): did not activate
activation of receptor (calcium response) (rTas1r2-hTAS1R3): clearly responded

C=C1C[C@@]23CC[C@H]4[C@@](C)(CCC[C@@]4(C)C(=O)O[C@@H]4O[C@H](CO)[C@@H](O)[C@H](O)[C@H]4O)[C@@H]2CC[C@]1(O[C@@H]1O[C@H](CO)[C@@H](O)[C@H](O)[C@H]1O[C@@H]1O[C@H](CO)[C@@H](O)[C@H](O)[C@H]1O)C3 [stevioside]
activation of receptor (calcium response) (rTas1r2-rTas1r3): robustly activated
activation of receptor (calcium response) (rTas1r2-hTAS1R3): failed to activate

OC[C@H]1O[C@@](CO)(O[C@H]2O[C@H](CO)[C@@H](O)[C@H](O)[C@H]2O)[C@@H](O)[C@@H]1O [sucrose]
activation of receptor (calcium response) (rTas1r2-rTas1r3): robustly activated
activation of receptor (calcium response) (rTas1r2-hTAS1R3): failed to activate
